The subject of the experiment is BDF1 mice, Adenocarcinoma 755 s.c., tumor weight T/C. Kind of experiment: NCI In Vivo Anticancer Drug Screen. Data for tumor model Adenocarcinoma 755 (subcutaneous) in B6D2F1 (BDF1) mice. Conditions: endpoint: mean tumor weight, higher = larger tumour. The procedure, abridged: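 In vivo antitumor screen on a transplantable tumor line. Result equals the measure in compound-treated animals divided by the same measure in vehicle controls.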

Where [1] appears, read: dose: 25.0 mg/kg/injection, schedule: Q01DX011 (ip), vehicle: methylcellulose (MC).

Where “and” joins values, the source holds several entries; their conditions need not be identical. Equal values may be shown once.

For orientation: T/C means the ratio of treated to control. For `C[C@@H]1C[C@@H]([C@H](O)CC2CC(=O)NC(=O)C2)C(=O)[C@@H](C)C1`, the T/C reads like this: (dose: 5.0 mg/kg/injection, schedule: Q#A X022 (ip), vehicle: alkali diluted with saline) 103 % of control; (dose: 6.63 mg/kg/injection, schedule: Q01DX011 (ip), vehicle: carboxymethylcellulose (CMC)) 51 % of control; (dose: 7.5 mg/kg/injection, schedule: Q01DX011 (ip), vehicle: methylcellulose (MC)) 89 % of control; (dose: 8.63 mg/kg/injection, schedule: Q01DX011 (ip), vehicle: carboxymethylcellulose (CMC)) 87 % of control; (dose: 9.5 mg/kg/injection, schedule: Q01DX011 (ip), vehicle: carboxymethylcellulose (CMC)) 103 % of control and 117 % of control; (dose: 10.0 mg/kg/injection, schedule: Q01DX011 (im), vehicle: alkali diluted with saline) 79 % of control. Moreover, the T/C is, setting by setting: (dose: 10.0 mg/kg/injection, schedule: Q01DX011 (ip), vehicle: alkali diluted with saline) 66 % of control and 75 % of control; (dose: 10.0 mg/kg/injection, schedule: Q01DX011 (oral), vehicle: alkali diluted with saline) 62 % of control; (dose: 10.0 mg/kg/injection, schedule: Q01DX011 (sc), vehicle: steriod suspending solution) 99 % of control; (dose: 10.0 mg/kg/injection, schedule: Q#A X022 (ip), vehicle: alkali diluted with saline) 64 % of control; (dose: 12.5 mg/kg/injection, schedule: Q01DX011 (ip), vehicle: methylcellulose (MC)) 71 % of control; (dose: 13.25 mg/kg/injection, schedule: Q01DX011 (ip), vehicle: carboxymethylcellulose (CMC)) 120 % of control. The T/C was 38 % of control (dose: 13.8 mg/kg/injection, schedule: Q01DX011 (ip), vehicle: carboxymethylcellulose (CMC)); 49 % of control (dose: 15.0 mg/kg/injection, schedule: Q01DX011 (ip), vehicle: methylcellulose (MC)); 50 % of control and 65 % of control (dose: 17.25 mg/kg/injection, schedule: Q01DX011 (ip), vehicle: carboxymethylcellulose (CMC)); 56 % of control and 59 % of control (dose: 19.0 mg/kg/injection, schedule: Q01DX011 (ip), vehicle: carboxymethylcellulose (CMC)); 91 % of control (dose: 20.0 mg/kg/injection, schedule: Q01DX006 (iv), vehicle: alkali diluted with saline); 76 % of control (dose: 20.0 mg/kg/injection, schedule: Q01DX011 (im), vehicle: alkali diluted with saline). Further, the T/C was 63 % of control (dose: 20.0 mg/kg/injection, schedule: Q01DX011 (oral), vehicle: alkali diluted with saline); 48 % of control (dose: 20.0 mg/kg/injection, schedule: Q01DX011 (sc), vehicle: steriod suspending solution); 31 % of control (dose: 23.0 mg/kg/injection, schedule: Q01DX011 (ip), vehicle: carboxymethylcellulose (CMC)); 47 % of control under setting [1]; 50 % of control (dose: 26.5 mg/kg/injection, schedule: Q01DX011 (ip), vehicle: carboxymethylcellulose (CMC)); 33 % of control (dose: 30.0 mg/kg/injection, schedule: Q01DX011 (ip), vehicle: methylcellulose (MC)). Besides, the T/C is 117 % of control (dose: 30.0 mg/kg/injection, schedule: Q03DX004 (ip), vehicle: alkali diluted with saline); 12 % of control and 13 % of control (dose: 34.5 mg/kg/injection, schedule: Q01DX011 (ip), vehicle: carboxymethylcellulose (CMC)); 27 % of control and 32 % of control (dose: 38.0 mg/kg/injection, schedule: Q01DX011 (ip), vehicle: carboxymethylcellulose (CMC)); 95 % of control and 76 % of control (dose: 40.0 mg/kg/injection, schedule: Q01DX006 (iv), vehicle: alkali diluted with saline); 18 % of control and 42 % of control (dose: 40.0 mg/kg/injection, schedule: Q01DX011 (oral), vehicle: alkali diluted with saline); 48 % of control (dose: 40.0 mg/kg/injection, schedule: Q01DX011 (sc), vehicle: steriod suspending solution). The T/C was 22 % of control and 36 % of control (dose: 40.0 mg/kg/injection, schedule: Q#A X022 (ip), vehicle: alkali diluted with saline); 88 % of control (dose: 50.0 mg/kg/injection, schedule: Q01DX001 (ip), vehicle: alkali diluted with saline); 13 % of control (dose: 50.0 mg/kg/injection, schedule: Q01DX011 (ip), vehicle: methylcellulose (MC)); 6 % of control (dose: 60.0 mg/kg/injection, schedule: Q01DX011 (ip), vehicle: methylcellulose (MC)); 47 % of control (dose: 60.0 mg/kg/injection, schedule: Q03DX004 (ip), vehicle: alkali diluted with saline); 92 % of control and 93 % of control (dose: 80.0 mg/kg/injection, schedule: Q01DX006 (iv), vehicle: alkali diluted with saline). Further, the T/C (dose: 80.0 mg/kg/injection, schedule: Q01DX011 (im), vehicle: alkali diluted with saline) was 4 % of control and 9 % of control; the T/C (dose: 80.0 mg/kg/injection, schedule: Q01DX011 (ip), vehicle: alkali diluted with saline) was 9 % of control and 21 % of control; the T/C (dose: 100.0 mg/kg/injection, schedule: Q01DX001 (ip), vehicle: alkali diluted with saline) was 63 % of control; the T/C (dose: 120.0 mg/kg/injection, schedule: Q03DX004 (ip), vehicle: alkali diluted with saline) was 41 % of control; the T/C (dose: 160.0 mg/kg/injection, schedule: Q01DX006 (iv), vehicle: alkali diluted with saline) is 24 % of control; the T/C (dose: 200.0 mg/kg/injection, schedule: Q01DX001 (ip), vehicle: alkali diluted with saline) was 186 % of control. Moreover, the T/C (dose: 400.0 mg/kg/injection, schedule: Q01DX001 (ip), vehicle: alkali diluted with saline) was 89 % of control.
In the case of `c1nc(N2CC2)c2cnn(C3CCCCO3)c2n1` (stereo not drawn), the T/C was 101 % of control (dose: 1.5 mg/kg/injection, schedule: Q01DX011 (ip), vehicle: other); 102 % of control (dose: 3.0 mg/kg/injection, schedule: Q01DX011 (ip), vehicle: other); 81 % of control (dose: 6.0 mg/kg/injection, schedule: Q01DX011 (ip), vehicle: other); 99 % of control (dose: 12.0 mg/kg/injection, schedule: Q01DX011 (ip), vehicle: other); 30 % of control (dose: 12.5 mg/kg/injection, schedule: Q01DX011 (ip), vehicle: saline); 113 % of control (dose: 25.0 mg/kg/injection, schedule: Q01DX011 (ip), vehicle: other). Further, the T/C (dose: 25.0 mg/kg/injection, schedule: Q01DX011 (ip), vehicle: saline) was 45 % of control.
For the compound `NNC(=O)c1nsnc1NC(N)=O`, the T/C reads like this: (dose: 43.0 mg/kg/injection, schedule: Q01DX011 (ip), vehicle: carboxymethylcellulose (CMC)) 39 % of control; (dose: 60.0 mg/kg/injection, schedule: Q01DX011 (ip), vehicle: carboxymethylcellulose (CMC)) 18 % of control.
For the compound `CSc1ncc(Br)c(NCc2ccccc2Cl)n1`, the T/C under setting [1] was 65 % of control; the T/C (dose: 31.0 mg/kg/injection, schedule: Q01DX011 (ip), vehicle: methylcellulose (MC)) is 106 % of control; the T/C (dose: 62.0 mg/kg/injection, schedule: Q01DX011 (ip), vehicle: methylcellulose (MC)) is 103 % of control; the T/C (dose: 125.0 mg/kg/injection, schedule: Q01DX011 (ip), vehicle: methylcellulose (MC)) is 85 % of control; the T/C (dose: 250.0 mg/kg/injection, schedule: Q01DX011 (ip), vehicle: methylcellulose (MC)) is 80 % of control.
With `CC1CCC(n2cnc3c([N+](C)(C)C)ncnc32)O1` (stereo not drawn), the T/C by setting is: (dose: 15.0 mg/kg/injection, schedule: Q01DX011 (ip), vehicle: saline) 58 % of control; (dose: 30.0 mg/kg/injection, schedule: Q01DX011 (ip), vehicle: saline) 35 % of control and 40 % of control; (dose: 60.0 mg/kg/injection, schedule: Q01DX011 (ip), vehicle: saline) 5 % of control; (dose: 120.0 mg/kg/injection, schedule: Q01DX011 (ip), vehicle: saline) 1 % of control.
`COC(=O)C1C2CC3c4[nH]c5cc(OC)ccc5c4CCN3CC2CC(OC(=O)c2cc(OC)c(OC)c(OC)c2)C1OC` (stereo not drawn): the T/C reads like this: (dose: 0.5 mg/kg/injection, schedule: Q01DX011 (ip), vehicle: saline) 109 % of control; (dose: 2.0 mg/kg/injection, schedule: Q01DX011 (ip), vehicle: saline) 101 % of control.

The values above are taken from PubChem BioAssay AID180 (DTP/NCI, 2004).
